{"source": "patent US7094869B2", "about": "“Low molecular weight peptidomimetic growth hormone secretagogues” (Genentech, Inc., priority 1994, dated 2006)", "key": {"rat pituitary cells": {"biological_target": "rat pituitary cells (Rattus norvegicus, UniProt O08725)", "sequence (O08725 whole entry)": "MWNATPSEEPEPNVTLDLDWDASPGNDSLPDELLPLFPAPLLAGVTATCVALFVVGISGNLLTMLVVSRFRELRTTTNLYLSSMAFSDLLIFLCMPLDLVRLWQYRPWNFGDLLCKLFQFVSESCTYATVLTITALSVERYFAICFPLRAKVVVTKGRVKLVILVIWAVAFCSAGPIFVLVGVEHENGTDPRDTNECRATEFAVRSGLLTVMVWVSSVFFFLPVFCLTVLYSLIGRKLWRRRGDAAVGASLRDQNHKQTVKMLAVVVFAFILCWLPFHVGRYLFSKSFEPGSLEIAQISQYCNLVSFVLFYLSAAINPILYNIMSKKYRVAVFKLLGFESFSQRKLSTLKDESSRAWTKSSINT", "how_it_was_run": "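Primary rat anterior pituitary cells, cultured three days in DME low glucose/10% FBS, were washed, pre-incubated twice for 15 min, then challenged 15 min with test compounds (DMSO ≤0.1%) at 37 °C. Released GH was measured by two-site ELISA; EC50 came from 4-parameter fits, mean of three to four independent determinations.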"}, "growth hormone secretion": {"test_system": "growth hormone secretion", "assay": "GHRP induced growth hormone secretion, intravenous administration (Rat IV)", "type": "in vivo", "how_it_was_run": "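Female Sprague Dawley rats (24-30 days, 50-90 g) under intraperitoneal pentobarbitone received graded intravenous tail-vein peptide doses in pH 5.0 sodium acetate/mannitol buffer 20 min post-anaesthesia. Blood by cardiac puncture 10 min after dosing; serum GH measured by rat GH ELISA in duplicate.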"}, "pituitary cells": {"test_system": "pituitary cells", "assay": "Calcium flux experiment (Indo-1 AM loaded pituitary cells)", "type": "cell-based, rat", "conditions": "10 nM, 21 seconds after addition"}, "[1]": {"assay": "GHRP induced dose dependent weight gain in rats (sc minipump infusion, 14 days)", "type": "in vivo, rat", "experimental": "Rat GHRH (1-43) was dissolved in the same buffer at 25 g/l.\nThe next day these osmotic pumps were inserted into rats.\nSerum chemistries were measured by standard automated procedures."}, "[2]": {"conditions": "high dose (inip) b b F K-NH2 100 μg/day, GHRH 600 μg/day, 14 d infusion"}}, "note": "“Also recorded” adds a separate entry of the source. Like-named read-outs stand apart in the source and are kept apart here.", "data": [{"smiles": "NCCCC[C@H](NC(=O)[C@H](Cc1ccccc1)NC(=O)[C@@H](Cc1ccc2ccccc2c1)NC(=O)[C@@H](Cc1ccc2ccccc2c1)NC(=O)C1CCNCC1)C(N)=O", "note": "[(inip) b b F K amide, (inip)-DβNal-DβNal-Phe-Lys-amide]", "values": [{"measurement": "concentration at which GH release is significantly (P<0.05) increased", "setting": "rat pituitary cells; 15 min exposure", "result": 0.3, "unit": "nM"}, {"measurement": "concentration by which GH release reaches a plateau", "setting": "rat pituitary cells; 15 min exposure", "result": 1, "unit": "nM"}, {"measurement": "fold more potent than GHRP-6", "setting": "rat pituitary cells; ratio of pit cell EC50s", "result": "over 30 fold"}, {"measurement": "EC50", "setting": "rat pituitary cells; read-out: EC50 of the representative GH dose response, single representative experiment, 15 min exposure", "result": 0.16, "unit": "nM"}, {"measurement": "EC50", "setting": "rat pituitary cells; read-out: mean EC50, mean ± SE of independent EC50s", "result": "0.18 ± 0.04", "unit": "nM"}, {"measurement": "RAT IV ED50", "setting": "growth hormone secretion; Table III, iv injection, serum GH 10 min after injection", "result": 0.2, "unit": "µg"}, {"measurement": "ED50 for induction of GH secretion", "setting": "growth hormone secretion; acute intravenous injection, 80 gram rats, doses 1.0, 0.2, 0.04 μg/injection", "result": 0.2, "unit": "μg/rat"}, {"measurement": "serum IGF-1 concentrations", "setting": "either mode of delivery", "result": "not significantly affected"}, {"measurement": "thymus weight", "setting": "high dose infusion (100 μg/day)", "result": "0.25 ± 0.03", "unit": "g"}, {"measurement": "epiphyseal plate width", "setting": "high dose injections", "result": "191±8", "unit": "μm"}, {"measurement": "heart weight", "setting": "high dose injections", "result": "1.15 ± 0.10", "unit": "g"}, {"measurement": "thymus weight", "setting": "high dose injections", "result": "0.33 ± 0.02", "unit": "g"}, {"measurement": "eviscerated and skinned carcass weight", "setting": "high dose injections (50 μg 2 times a day)", "result": "152.4 ± 2.5", "unit": "g"}, {"measurement": "weight gain", "setting": "in 14 days, FIG. 20", "result": "36 ± 3", "unit": "g"}, {"measurement": "cartilage growth (epiphyseal plate width)", "setting": "infusions", "result": "did not significantly increase cartilage growth"}, {"measurement": "skin weight compared to control", "setting": "injections and low dose infusion", "result": "heavier"}, {"measurement": "soleus muscle, kidney and liver weight", "setting": "injections or infusions, 14 days", "result": "unaffected"}, {"measurement": "epiphyseal plate width", "setting": "low dose injections", "result": "160±11", "unit": "μm"}, {"measurement": "eviscerated and skinned carcass weight", "setting": "low dose injections (10 μg 2 times a day)", "result": "152.8 ± 2.8", "unit": "g"}, {"measurement": "weight gain", "setting": "twice daily injections of 10 μg, adult female rats", "result": 30, "unit": "gram"}, {"measurement": "Ca++ flux", "setting": "pituitary cells; listed as (inip)-bbFK-NH2", "result": "increased Ca flux"}, {"measurement": "Ca++ flux", "setting": "pituitary cells; listed as (inip)bbFK-NH2", "result": "increased C^++ flux"}, {"measurement": "epiphyseal plate width", "setting": "[1]; 14 d infusion", "result": "no statistically significant increase"}, {"measurement": "pituitary and kidney weight", "setting": "[1]; 14 d infusion", "result": "not affected"}, {"measurement": "heart weight compared to excipient", "setting": "[1]; high dose 100 μg/day, GHRH 600 μg/day", "result": "tended to be increased"}, {"measurement": "liver weight", "setting": "[1]; high dose (100 μg/day), 14 d infusion", "result": "10.14 ± 0.29", "unit": "g"}, {"measurement": "spleen weight", "setting": "[1]; [2]", "result": "628 ± 26", "unit": "mg"}, {"measurement": "thymus weight", "setting": "[1]; [2]", "result": "584 ± 34", "unit": "mg"}, {"measurement": "liver weight", "setting": "[1]; low dose (4 μg/day), 14 d infusion", "result": "9.40 ± 0.37", "unit": "g"}, {"measurement": "liver weight", "setting": "[1]; medium dose (20 μg/day), 14 d infusion", "result": "9.70 ± 0.29", "unit": "g"}, {"measurement": "body weight gain compared to excipient", "setting": "[1]; sc minipump 14 days, (inip) b b F K-NH2 4, 20, 100 μg/d, GHRH 600 μg/d, 90 day old female rats", "result": "dose-related weight gain; also recorded: significant body weight and organ weight gain"}]}]}
